The values that follow come from patent EP1351565B1, “CHEMICAL INHIBITORS OF MISMATCH REPAIR” (Morphotek, Inc., priority 2001, dated 2002).

The subject of series [1] is immortalized human breast epithelial cells. The settings on record: cited from earlier work.
Series [2] deals with Arabidopsis thaliana. Briefly: Toxicity curve of DMA and EMS on Arabidopsis seeds (root and shoot formation). It is filed as in vivo. As to the method:
Briefly, AT seeds were sterilized with straight commercial bleach and 100 seeds were plated in 100mm Murashige and Skoog (MS) phytagar (Life Technology) plates with increasing amounts of DMA (ranging from 100µm to 50mM). A similar amount of seeds were plated on MS phytagar only or in MS phytagar with increasing amounts of EMS (100µM to 50mM), a mutagen commonly used to mutate AT seeds (McCallum, C.M.et al. (2000) Nat. Biotechnol.18:455-457). Plates were grown in a temperature-controlled, fluorescent-lighted humidifier (Percival Growth Chamber) for 10 days. After 10 days, seeds were counted to determine toxicity levels for each compound. […] Plantlets that were identical to untreated seeds were scored healthy. Seeds with stunted root or shoot formation were scored intermediate (inter). Non-germinated seeds were scored dead. Table 2: Toxicity curve of DMA and EMS on Arabidopsis (per […])

Series [3] relates to Arabidopsis thaliana. The series can be described thus: New phenotypes in offspring of chemically treated Arabidopsis plants. It is filed as in vivo. As to the method:
Next, 50 seeds were plated in two 150mm dishes containing 2mM DMA, 250 µM EMS or no drug. Seeds were grown for 10 days and then 10 plants from each plate were transferred to soil. All plants appeared to be similar in color and height. Plants were grown at room temperature with daily cycles of 18 hr light and 6 hr dark. After 45 days seeds are harvested from siliques and stored in a desiccator at 4°C for 72 hours. Seeds are then sterilized and 100 seeds from each plant is sown directly into water-saturated soil and grown at room temperature with daily cycles of 18 hr light and 6 hr dark. […] These 7 altered plants were light green in color and appeared to grow slower. […] DMA-exposed plants produced offspring that were yellow in appearance in contrast to dark green, which is always found in wild-type plants. In addition, the yellow plants were also shorter. After 30 days, most wild-type plants produced flowers and siliques, while the 7 mutants just began flowering. After 45 days, control plants were harvested while mutant plants were harvested 10 to 15 days later.

Series [4] concerns H36pCAR-OF cell line. Briefly: H36pCAR-OF screening assay (MMR-sensitive β-galactosidase reporter). It is filed as cell-based, murine.
Series [5] has as its system Pichia yeast containing a pGUS-OF reporter system. Briefly: Pichia yeast pGUS-OF reporter assay for MMR blockade. The settings on record: 300 µM, 48 hours. It is filed as cell-based. As to the method: Briefly, the GUS-OF and GUS-IF gene, which contains a polyA repeat at the N-terminus of the protein was subcloned from the pCR=IF-GUS and pCR-OF-GUS plasmids into the EcoRI site of the pGP vector, which is a consitutively expressed yeast vector containing a zeocin resistance gene as selectable marker. pGP-GUS-IF and pGP-GUS-OF vectors were electroporated into competent Pichia cells using standard methods known by those skilled in the art. Cells were plated on YPD agar (10g/L yeast extract; 20 g/L peptone; 2% glucose; 1.5% bactoagar) plates containing 100 µg/ml zeocin. Recombinant yeast are then analyzed for GUS expression/function by replica plating on YPD agar plates containing 100 µg/ml zeocin plus 1 mg/ml X-glu (5-bromo-4-chloro-3-indoyl-beta-D-glucuronide sodium salt) and grown at 30°C for 16 hours. […] None of the yeast containing the GUS-OF turned blue in the presence of the X-glu substrate under normal growth conditions.
After incubation, yeast were plated on YPD-ZEO-X-GLU plates and grown at 30°C for 16 hours.
Background: Reporter assays use an easily measured gene product as a stand-in for the process of interest.

The test system of series [6] is human HEK293 cells. The series can be described thus: Microsatellite instability of endogenous BAT26 marker in 293 cells. It is filed as cell-based. The settings on record: 250 µM DMA. As to the method: Briefly, […] were grown in control medium or 250 µM DMA, a concentration that is found to be non-toxic, for 14 to 17 days. Cells are then harvested and genomic DNA isolated using the salting out method (Nicolaides, N.C. et al. (1991) Mol. Cell. Biol. 11 :6166-6176.).
Various amounts of test DNAs from HCT116 (a human colon epithelial cell line) and 293 were first used to determine the sensitivity of our microsatellite test. The BAT26 alleles are known to be heterogeneous between these two cell lines and the products migrate at different molecular weights (Nicolaides personal observation). DNAs were diluted by limiting dilution to determine the level of sensitivity of the assay. DNAs were PCR amplified using the BAT26F: 5'-[…]-3' (SEQ ID NO:43) and the BAT26R: 5'-[…]-3' (SEQ ID NO:44) primers in buffers as described (Nicolaides, N.C. et al. (1995) Genomics 30:195-206). Briefly 1 pg to 100 ngs of DNA were amplified using the following conditions: 94°C for 30 sec, 58°C for 30 sec, 72°C for 30 sec for 30 cycles. […]
To measure for microsatellite stability in 293 cells grown with or without DMA, 0.1 ngs of DNA from DMA-treated or control 293 cells were amplified using the reaction conditions above. […] Fifty bacterial colonies were analyzed for BAT26 structure by directly adding an aliquot of live bacteria to the PCR mix. […]

Series [7] relates to human HEK293 cells. The series can be described thus: Toxicity in HEK293 cells. It is filed as cell-based. The settings on record: 250 µM, 293 cells.
For series [8] the following is noted: at high concentrations; cited from earlier work.
The conditions of series [9]: rat-liver microsomal preparations; cited from earlier work. For orientation: Liver microsomes are vesicles of endoplasmic reticulum, rich in cytochrome P450 enzymes.
The test system of series [10] is MMR activity. The settings on record: in vitro assays; cited from earlier work.
The test system of series [11] is MMR defective cell lines. The settings on record: cited from earlier work.
Setting [12] is: Arabidopsis thaliana, in vivo, 10 days, 0.1 mM.
The mark [13] stands for this setting: Arabidopsis thaliana, in vivo, 10 days, 0.5 mM.
[14] abbreviates: Arabidopsis thaliana, in vivo, 10 days, 1 mM.
[15] abbreviates: Arabidopsis thaliana, in vivo, 10 days, 2.5 mM.
Where [16] appears, read: Arabidopsis thaliana, in vivo, 10 days, 5 mM.
Where [17] appears, read: Arabidopsis thaliana, in vivo, 10 days, 10 mM.
Where [18] appears, read: Arabidopsis thaliana, in vivo, 10 days, 12.5 mM.
The mark [19] stands for this setting: Arabidopsis thaliana, in vivo, 10 days, 25 mM.
The mark [20] stands for this setting: Arabidopsis thaliana, in vivo, 10 days, 50 mM.
[21] abbreviates: concentration 0.5 (mM), 10 days.
[22] abbreviates: concentration 1.0 (mM), 10 days.
Setting [23] is: concentration 2.5 (mM), 10 days.
Setting [24] is: concentration 5.0 (mM), 10 days.
Setting [25] is: concentration 12.5 (mM), 10 days.

As for `c1ccc2c(c1)cc1ccc3cccc4ccc2c1c34` [benzo [a]pyrene], the “effect on MMR activity” value in [1] is given as “MMR activity might have been blocked”.

Turning to `Cc1c2ccccc2c(C)c2c1ccc1ccccc12` [7,12-dimethylbenz[a]anthracene], in series [1], the “effect on MMR activity” value is listed as “MMR activity might have been blocked”.

Take `CCOS(C)(=O)=O` [EMS, ethyl methanesulfonate]: the “concentration at which toxicity occurs” value in series [2] (Arabidopsis thaliana, in vivo, 10 days) was found to be 250 µm. In addition, the Healthy in series [2] (setting [12]) came to 100 per 100 cells; in [2] (setting [13]), 45 per 100 cells; in series [2] (setting [14]), 25 per 100 cells; in [2] (setting [15]) it was 0 per 100 cells; in series [2] (setting [16]), 0 per 100 cells; in series [2] (setting [17]), 0 per 100 cells. Besides, the Healthy in series [2] (setting [18]), in series [2] (setting [19]) and in [2] (setting [20]) was 0 per 100 cells throughout. In addition, the Inter in series [2] (setting [12]) is on record as 0 per 100 cells; in [2] (setting [13]), 54 per 100 cells; in series [2] (setting [14]) it was 75 per 100 cells; in [2] (setting [15]) it was 0 per 100 cells; in series [2] (setting [16]) it was 0 per 100 cells; in series [2] (setting [17]) it was 0 per 100 cells. For the same compound, the Inter in [2] (setting [18]), in [2] (setting [19]) and in series [2] (setting [20]) was 0 per 100 cells throughout. The phenotypically distinct plants in series [3] (150 offspring at day 10 of plants grown from seeds plated in 250 µM EMS) was “no phenotypic difference was observed”. Further, the “MI and/or shifting of the polynucleotide tract in the pCAR-OF reporter (β-galactosidase positive cells)” value in series [4] is given as “did not result in MI”. Moreover, the “blue subclones (GUS activity) on YPD-ZEO-X-GLU plates” value in series [5] is “none are seen”.

As for `Cc1c2ccccc2c(C)c2ccccc12` [DMA, 9,10-dimethylanthracene], the Dead in series [2] (concentration 0.1 (mM), 10 days, non-germinated seeds scored dead) is on record as 0 per 100 seeds; in series [2] (setting [21]) it was 0 per 100 seeds; in series [2] (setting [22]), 0 per 100 seeds; in series [2] (setting [23]) it was 0 per 100 seeds; in [2] (setting [24]), 0 per 100 seeds; in series [2] (concentration 10 (mM), 10 days), 0 per 100 seeds. Further, the Dead stood at 0 per 100 seeds in [2] (setting [25]); 0 per 100 seeds in series [2] (concentration 25 (mM), 10 days); 100 per 100 seeds in series [2] (concentration 50 (mM), 10 days). In addition, the Inter in series [2] (concentration 0.1 (mM), 10 days, stunted root or shoot formation scored intermediate) amounted to 0 per 100 seeds; in [2] (setting [21]), 0 per 100 seeds; in series [2] (setting [22]), 0 per 100 seeds; in [2] (setting [23]), 20 per 100 seeds; in series [2] (setting [24]) it was 15 per 100 seeds; in [2] (concentration 10 (mM), 10 days), 32 per 100 seeds. Besides, the Inter in series [2] (setting [25]) is reported as 85 per 100 seeds; in [2] (concentration 25 (mM), 10 days) it was 100 per 100 seeds; in series [2] (concentration 50 (mM), 10 days), 0 per 100 seeds. Moreover, the Healthy in series [2] (concentration 0.1 (no unit in head; mM), MS phytagar, 10 days, identical to untreated seeds) is 94 per 100 seeds; in [2] (concentration 0.5 (mM), MS phytagar, 10 days), 99 per 100 seeds; in [2] (concentration 1.0 (mM), MS phytagar, 10 days) it was 99 per 100 seeds; in [2] (concentration 2.5 (mM), MS phytagar, 10 days), 80 per 100 seeds; in [2] (concentration 5.0 (mM), MS phytagar, 10 days) it was 85 per 100 seeds; in series [2] (concentration 10 (mM), MS phytagar, 10 days), 65 per 100 seeds. Moreover, the Healthy is reported as 0 per 100 seeds in [2] (concentration 12.5 (mM), MS phytagar, 10 days); 0 per 100 seeds in [2] (concentration 25 (mM), MS phytagar, 10 days); 0 per 100 seeds in [2] (concentration 50 (mM), MS phytagar, 10 days). In series [2] (continuous culture, Arabidopsis seeds), the “concentration at which toxicity occurs” value is 10 mM. The phenotypically distinct plants in [3] (offspring at day 10 of plants grown from seeds plated in 2mM DMA) was 7 out of 118. In addition, the “MI and/or shifting of the polynucleotide tract in the pCAR-OF reporter (β-galactosidase positive cells)” value in series [4] is given as “shifting the pCAR-OF reporter plasmid”. Besides, in series [6] (14 to 17 days, PCR and 12% PAGE), the “BAT26 alleles (microsatellite instability)” value was “showed the presence of an altered allele”. Also, the “BAT26 polyA repeat length by sequence analysis” value in [6] (five clones sequenced, control homozygous 26nt polyA) was “multiple alleles ranging from the wild-type with 26 polyA repeat to shorter alleles (24 polyA repeat) and larger alleles (28 polyA repeat)”. The toxicity result in series [7] is “non-toxic”. In addition, the “blue subclones (GUS activity) on YPD-ZEO-X-GLU plates” value in series [5] was “a subset of yeast expressing GUS-OF contain blue subclones”. In addition, the mutagenicity entry in [8] is “acts as a potent weak mutagen”. Also, the metabolites formed entry in series [9] is “converted to 9-Hydroxymethyl-10-methylanthracene (9-OHMeMA) and 9,10-dihydroxymethyl-anthracene (9,10-DiOHMeA)”.

As to `Nc1ncnc2c1ncn2[C@@H]1O[C@H](COP(=O)(O)OP(=O)(O)OP(O)(O)=S)[C@@H](O)[C@H]1O` [ATP[gamma]S], the “effect on MMR activity” value in series [10] was “block the MMR activity”.

Consider `COc1ccc2nc3cc(Cl)ccc3c(NCCCNCCCl)c2c1` [ICR191], for which the “mutation rates in MMR defective cell lines” value in series [11] is “produce enhanced mutation rates in already MMR defective cell lines”.

In the case of `Nc1ncnc2c1ncn2[C@@H]1O[C@H](COP(=O)(O)OP(=O)(O)NP(=O)(O)O)[C@@H](O)[C@H]1O` [AMP-PNP], in [10], the “effect on MMR activity” value is listed as “block the MMR activity”.
